Laboratory results reported in patent US20120010242A1 (ALKERSTRAAT 30 A, priority 2009, published 2012).

Experiments:
5-HT2C receptor = molecular target: T1, 5-HT2C receptor (Homo sapiens, UniProt P28335); experiment: pKi for 5HT2C receptor (Table 1); format: binding
T1 sequence (P28335 33-458): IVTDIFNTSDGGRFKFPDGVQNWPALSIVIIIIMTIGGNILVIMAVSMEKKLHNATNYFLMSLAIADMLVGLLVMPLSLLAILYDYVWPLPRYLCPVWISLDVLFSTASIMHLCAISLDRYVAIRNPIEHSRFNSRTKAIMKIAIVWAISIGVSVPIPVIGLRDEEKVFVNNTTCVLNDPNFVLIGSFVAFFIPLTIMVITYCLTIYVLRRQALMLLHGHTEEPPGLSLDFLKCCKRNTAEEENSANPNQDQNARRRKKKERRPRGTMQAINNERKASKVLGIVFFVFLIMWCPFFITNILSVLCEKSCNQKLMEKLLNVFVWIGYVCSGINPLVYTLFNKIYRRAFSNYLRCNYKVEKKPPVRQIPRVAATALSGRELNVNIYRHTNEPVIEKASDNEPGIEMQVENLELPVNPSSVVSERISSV
Source text: (§1) The term “other 5HT receptors” as used herein relate to, for instance, 5-HT1 receptors (e.g. 5-HT1A, 5-HT1 B, 5-HT1D, 5-HT1 E, 5-HT1F), 5-HT2B, 5-HT2C, 5-HT6 (rat) and 5-HT7 (rat). The expression “selective affinity for the 5-HT2A receptor” relates to a receptor having a higher affinity for the 5-HT2A receptor than for other 5-HT receptors. The expression “selective affinity for the D4 receptor” means that the receptor has a higher affinity for the dopamine D4 receptor than for other dopamine receptors. The term “other dopamine receptors” relates to, for instance, D1, D2 and D3 dopamine receptors. pKi values of test compounds for dopamine receptors as well as 5-HT2A receptors can be measured using commonly known assays.

5-HT1A receptor = molecular target: T2, 5-HT1A receptor (Homo sapiens, UniProt P08908); experiment: pKi for 5HT1A receptor (Table 1); format: binding
T2 sequence (P08908 1-422): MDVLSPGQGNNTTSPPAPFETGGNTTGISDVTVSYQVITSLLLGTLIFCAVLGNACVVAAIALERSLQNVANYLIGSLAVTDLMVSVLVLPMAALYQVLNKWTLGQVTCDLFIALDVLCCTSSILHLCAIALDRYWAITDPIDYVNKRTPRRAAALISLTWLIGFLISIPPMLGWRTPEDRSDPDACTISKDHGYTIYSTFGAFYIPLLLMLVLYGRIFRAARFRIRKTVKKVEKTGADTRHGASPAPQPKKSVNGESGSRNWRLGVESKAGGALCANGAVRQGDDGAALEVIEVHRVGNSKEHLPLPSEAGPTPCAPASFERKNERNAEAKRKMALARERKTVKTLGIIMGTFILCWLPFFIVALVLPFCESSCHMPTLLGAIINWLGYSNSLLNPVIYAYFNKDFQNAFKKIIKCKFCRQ
Source text: (§2) The term “other dopamine receptors” relates to, for instance, D1, D2 and D3 dopamine receptors. pKi values of test compounds for dopamine receptors as well as 5-HT2A receptors can be measured using commonly known assays.

[1] = molecular target: T3, adrenergic receptor Alpha 1A (Homo sapiens, UniProt P35348); experiment: pKi for adrenergic receptor Alpha1A (Table 1); format: binding
T3 sequence (P35348 1-466): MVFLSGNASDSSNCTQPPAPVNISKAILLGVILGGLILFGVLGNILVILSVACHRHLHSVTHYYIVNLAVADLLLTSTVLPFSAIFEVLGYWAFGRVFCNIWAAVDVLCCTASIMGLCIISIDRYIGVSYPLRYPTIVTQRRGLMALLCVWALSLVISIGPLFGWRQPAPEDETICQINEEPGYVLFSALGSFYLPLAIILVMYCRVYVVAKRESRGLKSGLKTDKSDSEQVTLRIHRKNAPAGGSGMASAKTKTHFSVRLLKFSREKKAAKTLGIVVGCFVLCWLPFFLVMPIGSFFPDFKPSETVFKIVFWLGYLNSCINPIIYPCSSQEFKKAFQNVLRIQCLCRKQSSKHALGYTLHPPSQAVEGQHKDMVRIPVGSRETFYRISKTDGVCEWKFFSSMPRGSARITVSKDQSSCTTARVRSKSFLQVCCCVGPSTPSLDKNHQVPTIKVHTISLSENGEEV
Source text: as §2

D3 dopamine receptor = D3 dopamine receptor (Homo sapiens, UniProt P35462); experiment: pKi for dopamine receptor D3 (Table 1); format: binding
Source text: as §1

[2] = molecular target: T4, adrenergic receptor Alpha 2A (Homo sapiens, UniProt P08913); experiment: pKi for adrenergic receptor Alpha2A (Table 1); format: binding
T4 sequence (P08913 1-465): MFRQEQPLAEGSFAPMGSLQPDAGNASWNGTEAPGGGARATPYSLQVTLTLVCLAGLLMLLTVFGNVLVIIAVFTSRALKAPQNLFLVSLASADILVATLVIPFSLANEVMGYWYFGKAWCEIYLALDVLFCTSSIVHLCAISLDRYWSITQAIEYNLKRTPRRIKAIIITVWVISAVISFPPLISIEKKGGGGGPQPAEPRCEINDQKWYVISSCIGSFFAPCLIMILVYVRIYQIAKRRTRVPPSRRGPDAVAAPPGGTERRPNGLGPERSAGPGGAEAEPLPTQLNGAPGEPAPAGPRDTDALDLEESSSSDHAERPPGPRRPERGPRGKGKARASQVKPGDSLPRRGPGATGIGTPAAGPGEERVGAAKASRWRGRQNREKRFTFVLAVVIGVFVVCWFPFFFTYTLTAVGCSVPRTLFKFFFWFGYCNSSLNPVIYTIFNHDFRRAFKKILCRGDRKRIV
Source text: as §1

5-HT2A receptor = 5-HT2A receptor (Homo sapiens, UniProt P28223); experiment: pKi for 5HT2A receptor (Table 1); format: binding
Source text: as §1

D4 receptor = molecular target: T5, D4 receptor (Homo sapiens, UniProt P21917); experiment: pKi for dopamine receptor D4 (Table 1); format: binding
T5 sequence (P21917 1-419): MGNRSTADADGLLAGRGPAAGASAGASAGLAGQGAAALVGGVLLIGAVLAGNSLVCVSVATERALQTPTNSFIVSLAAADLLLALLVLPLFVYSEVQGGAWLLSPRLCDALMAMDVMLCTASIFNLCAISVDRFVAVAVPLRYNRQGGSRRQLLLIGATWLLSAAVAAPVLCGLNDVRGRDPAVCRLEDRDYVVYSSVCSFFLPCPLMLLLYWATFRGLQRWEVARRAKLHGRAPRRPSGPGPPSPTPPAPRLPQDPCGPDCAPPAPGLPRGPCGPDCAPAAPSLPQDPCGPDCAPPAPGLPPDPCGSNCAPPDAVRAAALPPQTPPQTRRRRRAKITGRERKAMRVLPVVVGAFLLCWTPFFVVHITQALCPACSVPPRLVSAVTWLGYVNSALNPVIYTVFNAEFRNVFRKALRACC
Source text: as §1

D1 dopamine receptor = D1 dopamine receptor (Homo sapiens, UniProt P21728); experiment: pKi for dopamine receptor D1 (Table 1); format: binding
Source text: as §2

5-HT1B receptor = 5-HT1B receptor (Homo sapiens, UniProt P28222); experiment: pKi for 5HT1B receptor (Table 1); format: binding
5-HT1D receptor = 5-HT1D receptor (Homo sapiens, UniProt P28221); experiment: pKi for 5HT1D receptor (Table 1); format: binding
5-HT2B receptor = 5-HT2B receptor (Homo sapiens, UniProt P41595); experiment: pKi for 5HT2B receptor (Table 1); format: binding
Source text: as §2

other dopamine receptors = experiment: pKi towards other dopamine receptors; format: binding; conditions: dopamine receptors other than D4
Source text: (§3) The term “other 5HT receptors” as used herein relate to, for instance, 5-HT1 receptors (e.g. 5-HT1A, 5-HT1 B, 5-HT1D, 5-HT1 E, 5-HT1F), 5-HT2B, 5-HT2C, 5-HT6 (rat) and 5-HT7 (rat). […] The term “other dopamine receptors” relates to, for instance, D1, D2 and D3 dopamine receptors. pKi values of test compounds for dopamine receptors as well as 5-HT2A receptors can be measured using commonly known assays.

[3] = tested on: patients with treatment refractory major depression; experiment: Semi-naturalistic open label study of low dose pipamperone in treatment refractory major depression; format: in vivo, human
Procedure: Design: Semi-naturalistic i.e. inclusion of every 'natural' patient in an outpatient practice but without concomitant use of mood enhancing drugs, open label Control: No Phase: Phase Ila-preliminary Proof of Concept Location: Belgium -Research Centre […] Adverse events are assessed on: body as a whole, central and peripheral nervous system, gastrointestinal, musculoskeletal, psychiatric, respiratory, skin and appendages, vascular and urinary, taking into account discontinued treatment due to adverse events. Laboratory parameters, ECG, bodyweight and vital signs are not measured since this is a naturalistic study.

other 5HT receptors = experiment: pKi towards other 5HT receptors; format: binding; conditions: 5HT receptors other than 5-HT2A
Source text: as §3

D2 dopamine receptor = D2 dopamine receptor (Homo sapiens, UniProt P14416); experiment: pKi for dopamine receptor D2 (Table 1); format: binding
Source text: as §2

5-HT7 (rat) receptor = 5-HT7 (rat) receptor (Rattus norvegicus, UniProt P32305); experiment: pKi for 5HT7 rat receptor (Table 1); format: binding
[4] = molecular target: adrenergic receptor Alpha 2B (Homo sapiens, UniProt P18089); experiment: pKi for adrenergic receptor Alpha2B (Table 1); format: binding
5-HT6 (rat) receptor = 5-HT6 (rat) receptor (Rattus norvegicus, UniProt P31388); experiment: pKi for 5HT6 rat receptor (Table 1); format: binding
[5] = molecular target: adrenergic receptor Beta 2 (Homo sapiens, UniProt P07550); experiment: pKi for adrenergic receptor Beta2 (Table 1); format: binding
[6] = molecular target: adrenergic receptor Alpha 2C (Homo sapiens, UniProt P18825); experiment: pKi for adrenergic receptor Alpha2C (Table 1); format: binding
[7] = molecular target: adrenergic receptor Beta 1 (Homo sapiens, UniProt P08588); experiment: pKi for adrenergic receptor Beta1 (Table 1); format: binding
5-HT1E receptor = 5-HT1E receptor (Homo sapiens, UniProt P28566); experiment: pKi for 5HT1E receptor (Table 1); format: binding
patients = conditions: clinical trials; cited from earlier work

Sequence of 5-HT2B receptor (P41595 whole entry): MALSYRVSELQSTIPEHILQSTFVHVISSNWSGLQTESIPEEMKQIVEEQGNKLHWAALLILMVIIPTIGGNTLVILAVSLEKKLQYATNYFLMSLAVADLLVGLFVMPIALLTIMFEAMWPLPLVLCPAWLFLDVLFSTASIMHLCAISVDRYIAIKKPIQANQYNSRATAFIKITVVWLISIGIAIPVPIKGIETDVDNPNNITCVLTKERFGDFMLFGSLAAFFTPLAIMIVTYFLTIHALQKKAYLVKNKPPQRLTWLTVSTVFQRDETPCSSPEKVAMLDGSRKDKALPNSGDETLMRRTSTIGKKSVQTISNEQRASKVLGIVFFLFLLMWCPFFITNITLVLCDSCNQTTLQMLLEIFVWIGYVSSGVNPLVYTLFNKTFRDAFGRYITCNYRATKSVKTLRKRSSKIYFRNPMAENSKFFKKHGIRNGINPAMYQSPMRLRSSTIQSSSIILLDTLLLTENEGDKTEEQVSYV
Sequence of D1 dopamine receptor (P21728 whole entry): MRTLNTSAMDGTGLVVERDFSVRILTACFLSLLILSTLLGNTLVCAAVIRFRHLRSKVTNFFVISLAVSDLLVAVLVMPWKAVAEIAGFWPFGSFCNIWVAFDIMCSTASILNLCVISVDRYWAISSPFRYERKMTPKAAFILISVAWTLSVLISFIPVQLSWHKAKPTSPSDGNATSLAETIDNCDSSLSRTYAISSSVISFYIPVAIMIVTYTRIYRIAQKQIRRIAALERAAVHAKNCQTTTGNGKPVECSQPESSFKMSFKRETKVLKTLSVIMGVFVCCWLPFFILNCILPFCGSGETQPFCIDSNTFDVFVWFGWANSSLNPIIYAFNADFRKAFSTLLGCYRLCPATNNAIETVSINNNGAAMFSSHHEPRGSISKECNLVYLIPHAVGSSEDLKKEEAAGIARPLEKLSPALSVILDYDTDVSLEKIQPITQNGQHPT
Sequence of D2 dopamine receptor (P14416 whole entry): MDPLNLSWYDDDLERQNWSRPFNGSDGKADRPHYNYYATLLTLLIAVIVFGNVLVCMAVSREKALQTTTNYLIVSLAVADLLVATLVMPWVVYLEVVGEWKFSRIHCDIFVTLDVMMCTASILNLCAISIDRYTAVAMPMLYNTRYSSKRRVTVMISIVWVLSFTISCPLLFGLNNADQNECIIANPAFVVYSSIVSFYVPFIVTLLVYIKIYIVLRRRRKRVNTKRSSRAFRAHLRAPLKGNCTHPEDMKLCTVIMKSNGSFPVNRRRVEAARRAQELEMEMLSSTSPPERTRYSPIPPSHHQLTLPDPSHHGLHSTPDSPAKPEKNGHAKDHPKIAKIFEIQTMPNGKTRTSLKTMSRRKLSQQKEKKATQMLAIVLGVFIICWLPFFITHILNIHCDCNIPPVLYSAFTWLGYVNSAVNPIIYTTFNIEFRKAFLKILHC
Sequence of 5-HT2A receptor (P28223 whole entry): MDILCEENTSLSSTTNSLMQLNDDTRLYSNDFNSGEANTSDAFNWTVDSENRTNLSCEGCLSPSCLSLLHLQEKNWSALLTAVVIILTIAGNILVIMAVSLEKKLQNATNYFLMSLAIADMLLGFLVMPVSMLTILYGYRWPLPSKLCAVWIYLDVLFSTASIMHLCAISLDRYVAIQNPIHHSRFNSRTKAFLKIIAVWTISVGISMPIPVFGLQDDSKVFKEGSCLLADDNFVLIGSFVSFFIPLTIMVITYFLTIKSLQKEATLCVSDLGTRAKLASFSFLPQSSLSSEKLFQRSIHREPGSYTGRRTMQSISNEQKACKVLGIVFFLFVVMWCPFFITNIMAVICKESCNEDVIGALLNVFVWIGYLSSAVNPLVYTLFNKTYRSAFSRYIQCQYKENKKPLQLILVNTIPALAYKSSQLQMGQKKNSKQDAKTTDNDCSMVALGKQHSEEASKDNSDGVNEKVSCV
Sequence of D3 dopamine receptor (P35462 whole entry): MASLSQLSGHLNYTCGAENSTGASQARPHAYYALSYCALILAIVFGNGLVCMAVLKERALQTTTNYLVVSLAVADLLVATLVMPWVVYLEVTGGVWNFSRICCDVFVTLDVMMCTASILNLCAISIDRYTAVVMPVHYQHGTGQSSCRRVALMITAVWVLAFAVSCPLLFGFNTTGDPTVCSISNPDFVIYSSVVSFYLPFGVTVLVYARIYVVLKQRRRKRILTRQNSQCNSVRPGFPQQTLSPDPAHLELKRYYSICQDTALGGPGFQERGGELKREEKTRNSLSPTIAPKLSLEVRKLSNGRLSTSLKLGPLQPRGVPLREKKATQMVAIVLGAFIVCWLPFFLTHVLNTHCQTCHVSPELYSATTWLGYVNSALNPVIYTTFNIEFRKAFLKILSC
Sequence of 5-HT1B receptor (P28222 whole entry): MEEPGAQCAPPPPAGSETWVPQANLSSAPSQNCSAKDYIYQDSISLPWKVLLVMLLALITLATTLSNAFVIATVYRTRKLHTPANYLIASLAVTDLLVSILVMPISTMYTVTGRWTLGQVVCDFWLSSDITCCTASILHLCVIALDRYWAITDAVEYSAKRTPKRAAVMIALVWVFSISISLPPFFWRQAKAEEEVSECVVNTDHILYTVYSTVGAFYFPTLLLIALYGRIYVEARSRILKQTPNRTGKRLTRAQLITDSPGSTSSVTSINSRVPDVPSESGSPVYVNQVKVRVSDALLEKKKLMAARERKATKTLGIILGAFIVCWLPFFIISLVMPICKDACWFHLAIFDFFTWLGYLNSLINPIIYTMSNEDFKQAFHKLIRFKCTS
Sequence of 5-HT1D receptor (P28221 whole entry): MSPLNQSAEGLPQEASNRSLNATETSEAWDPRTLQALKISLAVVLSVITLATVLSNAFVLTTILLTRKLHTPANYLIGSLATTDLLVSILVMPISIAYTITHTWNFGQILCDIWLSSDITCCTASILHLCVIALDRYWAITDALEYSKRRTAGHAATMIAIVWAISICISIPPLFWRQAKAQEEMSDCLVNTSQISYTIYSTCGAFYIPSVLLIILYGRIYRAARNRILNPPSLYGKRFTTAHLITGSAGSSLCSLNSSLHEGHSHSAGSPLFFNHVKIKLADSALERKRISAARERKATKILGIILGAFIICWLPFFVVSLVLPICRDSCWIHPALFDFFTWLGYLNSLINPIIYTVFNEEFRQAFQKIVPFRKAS
Sequence of 5-HT6 (rat) receptor (P31388 whole entry): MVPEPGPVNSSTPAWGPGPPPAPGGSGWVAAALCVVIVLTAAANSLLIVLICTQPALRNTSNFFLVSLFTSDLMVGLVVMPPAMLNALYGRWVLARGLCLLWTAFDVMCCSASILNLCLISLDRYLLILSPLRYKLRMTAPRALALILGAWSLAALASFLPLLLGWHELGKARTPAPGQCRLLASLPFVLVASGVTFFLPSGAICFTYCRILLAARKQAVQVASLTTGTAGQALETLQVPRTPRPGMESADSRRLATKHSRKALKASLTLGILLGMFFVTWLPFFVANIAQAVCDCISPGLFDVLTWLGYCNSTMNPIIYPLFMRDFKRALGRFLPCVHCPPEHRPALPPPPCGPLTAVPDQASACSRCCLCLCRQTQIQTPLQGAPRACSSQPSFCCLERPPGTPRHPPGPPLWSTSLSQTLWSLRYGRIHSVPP
Sequence of adrenergic receptor Beta 2 (P07550 whole entry): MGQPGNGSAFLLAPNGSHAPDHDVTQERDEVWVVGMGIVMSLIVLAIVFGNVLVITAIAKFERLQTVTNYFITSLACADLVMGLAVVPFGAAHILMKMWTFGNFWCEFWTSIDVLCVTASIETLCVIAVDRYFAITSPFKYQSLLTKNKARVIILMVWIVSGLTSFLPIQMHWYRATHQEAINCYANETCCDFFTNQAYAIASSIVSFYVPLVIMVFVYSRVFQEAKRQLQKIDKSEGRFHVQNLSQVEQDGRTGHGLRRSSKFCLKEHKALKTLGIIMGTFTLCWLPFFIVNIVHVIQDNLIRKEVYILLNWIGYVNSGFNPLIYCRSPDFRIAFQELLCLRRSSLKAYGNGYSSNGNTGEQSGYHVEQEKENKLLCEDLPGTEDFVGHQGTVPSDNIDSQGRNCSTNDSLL
Sequence of adrenergic receptor Alpha 2B (P18089 whole entry): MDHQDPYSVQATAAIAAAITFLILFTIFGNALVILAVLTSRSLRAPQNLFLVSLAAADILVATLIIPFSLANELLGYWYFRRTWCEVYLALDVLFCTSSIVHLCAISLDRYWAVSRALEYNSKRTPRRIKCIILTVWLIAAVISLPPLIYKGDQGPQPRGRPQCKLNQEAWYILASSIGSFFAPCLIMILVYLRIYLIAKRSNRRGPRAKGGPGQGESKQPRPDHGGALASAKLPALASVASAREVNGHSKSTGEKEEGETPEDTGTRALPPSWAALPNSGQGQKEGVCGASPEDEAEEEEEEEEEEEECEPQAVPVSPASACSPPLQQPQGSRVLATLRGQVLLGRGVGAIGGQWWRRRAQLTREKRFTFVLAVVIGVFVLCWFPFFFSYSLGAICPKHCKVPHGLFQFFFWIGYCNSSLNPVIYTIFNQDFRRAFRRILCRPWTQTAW
Sequence of 5-HT1E receptor (P28566 whole entry): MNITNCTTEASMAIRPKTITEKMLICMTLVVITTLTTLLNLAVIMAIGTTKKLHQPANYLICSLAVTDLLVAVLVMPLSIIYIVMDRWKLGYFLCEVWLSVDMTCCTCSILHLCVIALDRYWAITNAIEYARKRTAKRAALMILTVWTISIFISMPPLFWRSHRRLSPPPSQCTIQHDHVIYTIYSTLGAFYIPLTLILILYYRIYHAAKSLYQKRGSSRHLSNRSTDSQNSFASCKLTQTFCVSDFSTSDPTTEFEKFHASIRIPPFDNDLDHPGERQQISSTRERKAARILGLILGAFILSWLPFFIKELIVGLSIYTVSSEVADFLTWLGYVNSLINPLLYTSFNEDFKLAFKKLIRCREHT

Row | SMILES | pKi 5HT2C (5-HT2C receptor) | pKi 5HT1A (5-HT1A receptor) | pKi Alpha1A [1] | pKi D3 (D3 dopamine receptor) | pKi Alpha2A [2] | pKi 5HT2A (5-HT2A receptor) | pKi D4 (D4 receptor) | further results
1 | CCN1CCC[C@H]1CNC(=O)c1c(O)c(Cl)cc(Cl)c1OC (racemic) [Raciopride] | <6 | <6 | <6 | 8-9 | <6 | 6-7 | <6 | pKi D1 (D1 dopamine receptor): <6
2 | CCNC(=O)N1CCN(CCCC(c2ccc(F)cc2)c2ccc(F)cc2)CC1 [Amperozide] | – | – | – | – | – | – | – | Ki (D4 receptor): > 1000 nM
3 | Fc1cccc2c1O[C@H]1CNC[C@@H]1O2 [Fluparoxan] | – | – | – | – | – | – | – | Ki (5-HT2A receptor): > 1000 nM
4 | OC1(c2ccc(Cl)cc2)CCN(Cc2c[nH]c3ccccc23)CC1 [L741626] | – | – | – | 7-8 | <6 | – | 6-7 | pKi 5HT1B (5-HT1B receptor): <6; pKi 5HT1D (5-HT1D receptor): <6; pKi 5HT2B (5-HT2B receptor): 6-7
5 | NC(=O)C1(N2CCCCC2)CCN(CCCC(=O)c2ccc(F)cc2)CC1 [Pipamperone, 1′-[3-(p-Fluorobenzoyl)propyl]-[1,4′-bipiperidine]-4′-carboxamide] | – | – | – | – | – | – | – | pKi towards other dopamine receptors (other dopamine receptors): less than 8; tolerability in patients with depression ([3]; 1-20 mg/day PO, 8 weeks): generally well tolerated; anti-depressant effect on treatment refractory patients ([3]; 1-20 mg/day PO, 8 weeks, refractory towards SSRIs): apparent; sedative effects ([3]; doses used in the study (1-20 mg/day), observed at higher doses): lacking; anti-depressant effect ([3]; extremely unconventional low dose, 1-20 mg/day PO, 8 weeks, open label): apparent; Ki (D4 receptor): ≤ 10 nM; pKi towards other 5HT receptors (other 5HT receptors): less than 8
6 | O=C(CC1CCN(CCOc2cccc3c2OCCO3)C1)c1ccc(F)cc1 (centres unmarked) [S16924] | 7-8 | 8-9 | 8-9 | 7-8 | 6-7 | >9 | 7-8 | pKi D2 (D2 dopamine receptor): 7-8; pKi 5HT7rat (5-HT7 (rat) receptor): 7-8; pKi Alpha2B [4]: 7-8; pKi 5HT6rat (5-HT6 (rat) receptor): 7-8; pKi Beta2 [5]: <6; pKi Alpha2C [6]: 6-7; pKi Beta1 [7]: <6; pKi 5HT2B (5-HT2B receptor): 8-9
7 | O=C1N(CCN2CCC(c3noc4cc(F)ccc34)CC2)CCN1c1ccccc1 [S18327] | 6-7 | 7-8 | >9 | 6-7 | 6-7 | 8-9 | 8-9 | pKi D2 (D2 dopamine receptor): 7-8; pKi D1 (D1 dopamine receptor): 7-8
8 | N#Cc1ccc2c(c1)[C@H]1CN(CCCCNC(=O)c3ccc(-c4ccccc4)cc3)C[C@@H]1CO2 [S33084] | 7-8 | <6 | 6-7 | >9 | <6 | 6-7 | <6 | pKi D2 (D2 dopamine receptor): 7-8; pKi 5HT1B (5-HT1B receptor): 6-7; pKi D1 (D1 dopamine receptor): 6-7; pKi 5HT1D (5-HT1D receptor): 6-7; pKi 5HT2B (5-HT2B receptor): 6-7
9 | OCCOCCN1CCN(C2=Nc3ccccc3Sc3ccccc32)CC1 [Seroquel] | – | – | – | – | – | – | – | Ki (5-HT1E receptor): > 1000 nM
10 | CN(C)CCOC1=Cc2ccccc2Sc2ccc(Cl)cc21 [Zotepine] | – | – | – | – | – | – | – | Ki (D4 receptor): 10 to 100 nM
11 | CN(C)CCCC1(c2ccc(F)cc2)OCc2cc(C#N)ccc21 (centres unmarked) [citalopram] | – | – | – | – | – | – | – | patients reporting one or more of the listed side effects (patients): over 10%
